Assay results published in the NIST ThermoML archive (doi:10.1021/je800330d).
Numbers after ± are expanded uncertainties.

Tests used:
[1] = mn = molality of the nth substance listed, in mol/kg; conditions: 101 kPa, Liquid, Capillary tube (Ostwald / Ubbelohde) method
[2] = 101 kPa, Liquid, Capillary tube (Ostwald / Ubbelohde) method
[3] = xn = mol fraction of the nth substance listed; conditions: 101 kPa, Liquid, Capillary tube (Ostwald / Ubbelohde) method

Row | Structure (SMILES) | viscosity ([1]; 298.15 K, m1 = 0.0081) [mPa·s] | viscosity ([1]; 298.15 K, m1 = 0.0099) [mPa·s] | viscosity ([1]; 298.15 K, m1 = 0.0201) [mPa·s] | viscosity ([1]; 298.15 K, m1 = 0.0402) [mPa·s] | viscosity ([1]; 298.15 K, m1 = 0.0599) [mPa·s] | viscosity ([1]; 298.15 K, m1 = 0.0802) [mPa·s] | viscosity ([1]; 298.15 K, m1 = 0.1) [mPa·s] | viscosity ([1]; 308.15 K, m1 = 0.0081) [mPa·s] | viscosity ([1]; 308.15 K, m1 = 0.0099) [mPa·s] | viscosity ([1]; 308.15 K, m1 = 0.0201) [mPa·s] | viscosity ([1]; 308.15 K, m1 = 0.0402) [mPa·s] | viscosity ([1]; 308.15 K, m1 = 0.0599) [mPa·s] | viscosity ([1]; 308.15 K, m1 = 0.0802) [mPa·s] | viscosity ([1]; 308.15 K, m1 = 0.1) [mPa·s] | also measured
1 | O=S(=O)([O-])[O-].[K+].[K+] [potassium sulfate] + O | 0.895 ± 0.012 | 0.896 ± 0.012 | 0.899 ± 0.012 | 0.905 ± 0.012 | 0.909 ± 0.012 | 0.914 ± 0.012 | 0.918 ± 0.012 | 0.723 ± 0.009 | 0.724 ± 0.009 | 0.727 ± 0.009 | 0.732 ± 0.01 | 0.737 ± 0.01 | 0.742 ± 0.01 | 0.746 ± 0.01 | –
2 | O [water] | – | – | – | – | – | – | – | – | – | – | – | – | – | – | viscosity ([2]; 298.15 K): 0.89 ± 0.011 mPa·s; viscosity ([2]; 308.15 K): 0.719 ± 0.009 mPa·s
3 | O=S(=O)([O-])[O-].O=S(=O)([O-])[O-].O=S(=O)([O-])[O-].[Al+3].[Al+3] [aluminum sulfate] + O | 0.904 ± 0.012 | 0.908 ± 0.012 | 0.927 ± 0.012 | 0.967 ± 0.012 | 1.008 ± 0.013 | 1.05 ± 0.013 | 1.093 ± 0.014 | 0.729 ± 0.01 | 0.732 ± 0.01 | 0.747 ± 0.01 | 0.777 ± 0.01 | 0.807 ± 0.01 | 0.839 ± 0.011 | 0.87 ± 0.011 | –
4 | N.N.O=S(=O)(O)O [ammonium sulfate] + O | 0.897 ± 0.012 | 0.898 ± 0.012 | 0.902 ± 0.012 | 0.908 ± 0.012 | 0.913 ± 0.012 | 0.918 ± 0.012 | 0.922 ± 0.012 | 0.725 ± 0.009 | 0.726 ± 0.009 | 0.729 ± 0.01 | 0.735 ± 0.01 | 0.74 ± 0.01 | 0.744 ± 0.01 | 0.748 ± 0.01 | –
5 | CN(C)C=O [dimethylformamide] + O | – | – | – | – | – | – | – | – | – | – | – | – | – | – | viscosity ([3]; 298.15 K, x1 = 0.05): 1.002 ± 0.013 mPa·s; viscosity ([3]; 298.15 K, x1 = 0.1): 1.126 ± 0.014 mPa·s; viscosity ([3]; 298.15 K, x1 = 0.15): 1.258 ± 0.016 mPa·s; viscosity ([3]; 298.15 K, x1 = 0.2): 1.391 ± 0.018 mPa·s; viscosity ([3]; 308.15 K, x1 = 0.05): 0.797 ± 0.01 mPa·s; viscosity ([3]; 308.15 K, x1 = 0.1): 0.891 ± 0.011 mPa·s; viscosity ([3]; 308.15 K, x1 = 0.15): 0.984 ± 0.013 mPa·s; viscosity ([3]; 308.15 K, x1 = 0.2): 1.08 ± 0.014 mPa·s
